Laboratory results as given in patent US6359196B1, “Germination-specific plant promoters” (priority 1999, dated 2002).

Experiments:
[1] = system: barley cystatin-1 gene promoter; test: Transient expression in barley aleurone protoplasts, cys1 promoter deletion constructs fused to β-glucuronidase, normalised to luciferase; type: cell-based; conditions: 1 μM phytohormone, 40-hour incubation at 20° C.; β-glucuronidase activity divided by luciferase activity
Description: Barley aleurone protoplasts were prepared as described in Example 4, and separate protoplast aliquots were co-transfected with plasmid pAHC18 carrying the luciferase gene under control of the gene promoter derived from a constitutively expressed maize ubitiquitin gene (Bruce et al., 1989, Proc. Natl. Acad. Sci. USA 86:9692-9696), and one of the eight expression plasmids containing 5' deletions of the cystatin-1 gene promoter, as described above. The molar concentration of pAHC 18 was half of that of the reporter plasmid directing expression of β-glucuronidase. Incubation of the protoplasts with 1 μM gibberellic acid or 1 μM abscisic acid were performed in order to analyse possible, regulative effects of the phytohormones on […] gene expression, and identify the location of possible hormone responsive cis-acting gene elements. After a 40-hour incubation at 20° C., the protoplasts were harvested and the level of β-glucuronidase and luciferase activities determined as described by Leah et al. (1994, supra). The relative β-glucuronidase activity in individual samples was calculated by dividing the measured activity by the measured luciferace activity, thereby allowing differences in transformation efficiency to be corrected for.

[2] = system: barley α-glucosidase gene promoter; test: Transient expression in barley aleurone protoplasts, constructs with the α-glucosidase gene promoter; type: cell-based; conditions: protoplasts incubated in the presence of gibberellic acid, 25° C., 40 hours
From the text: It is possible to evaluate the expression levels directed by the barley α-glucosidase gene promoter by several methods. One such method is by transient expression assays performed with protoplasts prepared from aleurone layers of the barley cultivar Himalaya. This approach is not only used to evaluate the ability of different promoters to function in barley endosperm-derived tissues, including the aleurone tissue, but also to determine whether an expressed protein is secreted from the plant cell or whether the protein remains in the cell cytoplasm.
Protoplasts are transfected with a gene cassette of interest and incubated to allow the introduced gene to be expressed, and the corresponding protein allowed to accumulate in the cell or in the surrounding liquid medium. Following incubation at 25° C. for 40 hours in the presence or absence of gibberellic acid, the cells and the growth medium are assayed for the presence of the protein encoded by the transgene in order to determine the efficiency of the promoter which drives transgene expression.
A protocol for the preparation and transfection of barley aleurone protoplasts has been published by Skriver et al., (1991, supra). […]

Structure (SMILES) | relative expression of β-glucuronidase [1] | activity derived from heterologously expressed enzymes [2]
CC1=CC(=O)CC(C)(C)[C@@]1(O)/C=C/C(C)=C\C(=O)O [abscisic acid] | increased | 
C=C1C[C@]23C[C@@]1(O)CC[C@H]2[C@@]12C=C[C@H](O)[C@@](C)(C(=O)O1)[C@H]2[C@@H]3C(=O)O [gibberellic acid] | slight depression | enhanced levels of activity
